Assay results reported in US20120108592A1, “PHARMACEUTICAL COMPOSITIONS AND METHODS OF USE OF SALICYLANILIDES FOR TREATMENT OF HEPATITIS VIRUSES” (priority 2010, published 2012).
Values joined by “and” are separate entries in the source; they are usually repeats but may differ in a detail not shown here. Equal values may be shown once.

Assays:
[1] = Primary HCV replicon cell assay, cytotoxicity (neutral red dye uptake); assay type: cell-based; conditions: human, AVA5 HCV replicon cells (sub-genomic CON1, genotype 1b), 3 days of treatment
Protocol: (§3) Antiviral activity of test compounds was assessed in a 3-day assay using the stably-expressing HCV replicon cell line, AVA5 (sub-genomic CONI, genotype 1b) [Korba, B. E. et al. Antiviral Res. 77, 56-63 (2008); Blight et al., Science 290, 1972-1974 (2000)] maintained as sub-confluent cultures on 96-well plates as previously described [Okuse et al., Antiviral Research 65, 23-34 (2005)]. Antiviral activity was determined by blot hybridization analysis of intracellular HCV RNA (normalized to the level of cellular B-actin RNA in each culture sample) and cytotoxicity was assessed by neutral red dye uptake after 3 days of treatment. Additional studies were performed using Huh7 cells containing another HCV replicon, H/FL-Neo, a genotype la full length construct [Blight et al., J. Virol. […] For studies involving human serum, standard culture medium (which contains 10% fetal bovine serum) and assay conditions were maintained.

[2] = test system: HCV replicon cell line, AVA5 (sub-genomic CONI, genotype 1b); experiment: Primary HCV replicon cell assay, antiviral activity (intracellular HCV RNA, blot hybridization); assay type: cell-based; conditions: Hepatitis C virus, Ava5, 72 h, 3-day assay; for EC50: 2-fold depression of intracellular HCV RNA; for EC90: 10-fold depression of intracellular HCV RNA
Protocol: (§1) Antiviral activity of test compounds was assessed in a 3-day assay using the stably-expressing HCV replicon cell line, AVA5 (sub-genomic CONI, genotype 1b) [Korba, B. E. et al. Antiviral Res. 77, 56-63 (2008); Blight et al., Science 290, 1972-1974 (2000)] maintained as sub-confluent cultures on 96-well plates as previously described [Okuse et al., Antiviral Research 65, 23-34 (2005)]. Antiviral activity was determined by blot hybridization analysis of intracellular HCV RNA (normalized to the level of cellular B-actin RNA in each culture sample) and cytotoxicity was assessed by neutral red dye uptake after 3 days of treatment. Additional studies were performed using Huh7 cells containing another HCV replicon, H/FL-Neo, a genotype la full length construct [Blight et al., J. Virol. 77, 3181-3190 (2003)]. For studies involving human serum, standard culture medium (which contains 10% fetal bovine serum) and assay conditions were maintained.
(§2) EC50, EC90 and CC50 values (±standard deviations [S.D.]) were calculated by linear regression analysis using data combined from all treated cultures (Korba, B. E. et al. Antiviral Res. 77, 56-63 (2008)). […] Selectivity index (S.I.) was calculated as CC50/EC90 for HBV assays and CC50/EC50 for HCV assays.

[3] = test system: HCV replicon H/FL-Neo, genotype 1a full length construct, in Huh7 cells; experiment: Secondary HCV replicon cell assay genotype 1a, antiviral activity; assay type: cell-based; conditions: Hepatitis C virus; for EC50: Huh-7, 2-fold depression of intracellular HCV RNA; for EC90: Huh-7, 10-fold depression of intracellular HCV RNA
Protocol: as §1, §2

[4] = Secondary HCV replicon cell assay genotype 1a, cytotoxicity (neutral red dye uptake); assay type: cell-based; conditions: human
Protocol: as §3

[5] = test system: HCV replicon cell line, AVA5 (sub-genomic CONI, genotype 1b); experiment: Secondary HCV replicon cell assay genotype 1b, antiviral activity; assay type: cell-based; conditions: Hepatitis C virus; for EC50: 2-fold depression of intracellular HCV RNA; for EC90: 10-fold depression of intracellular HCV RNA
Protocol: as §1, §2

[6] = Secondary HCV replicon cell assay genotype 1b, cytotoxicity (neutral red dye uptake); assay type: cell-based; conditions: human, AVA5 HCV replicon cells (sub-genomic CON1)
Protocol: as §3

[7] = Cytotoxicity in 2.2.15 cells (neutral red dye uptake); assay type: cell-based; conditions: human, nine daily doses
Protocol: Briefly, confluent cultures of 2.2.15 cells were maintained on 96-well flat-bottomed tissue culture plates (confluence in this culture system is required for active, high levels of HBV replication equivalent to that observed in chronically-infected individuals. Cultures were treated with nine consecutive daily doses of the test compounds. HBV DNA levels were assessed by quantitative blot hybridization 24 hr. after the last treatment. Cytotoxicity was assessed by uptake of neutral red dye 24 hr. following the last treatment.

[8] = test system: HBV virion in 2.2.15 cells; experiment: HBV antiviral assay in 2.2.15 cells, virion (VIR) HBV DNA; assay type: cell-based; conditions: Hepatitis B virus, HBV virion DNA, 2.2.15 cells, nine daily doses; for EC50: read-out: EC50 (VIR); for EC90: read-out: EC90 (VIR)
Protocol: (§4) HBV antiviral assays were conducted as previously described [Korba, B. E. et al. Antiviral Res. 77, 56-63 (2008);].

[9] = test system: HBV replication intermediates in 2.2.15 cells; experiment: HBV antiviral assay in 2.2.15 cells, replication intermediates (RI) HBV DNA; assay type: cell-based; conditions: Hepatitis B virus, HBV replication intermediates, 2.2.15 cells, nine daily doses; for EC50: read-out: EC50 (RI); for EC90: read-out: EC90 (RI)
Protocol: as §4

| Compound | melting point | CC50 at 3 days [1] [µM] | EC50 [2] [µM] | EC90 [2] [µM] | further results |
| --- | --- | --- | --- | --- | --- |
| Cc1cccc(C(=O)Nc2ccc(F)cc2)c1O | 144.8 to 145.8 °C |  |  |  |  |
| O=C(O)c1ccccc1C(=O)Nc1ccc(F)cc1 | 167.3 °C |  |  |  |  |
| O=C(Nc1cccc(Br)c1)c1ccccc1O | 183.5 °C |  |  |  |  |
| Cc1cccc(C(=O)Nc2cccc([N+](=O)[O-])c2)c1O | 217.5 °C |  |  |  |  |
| Cc1cccc(C(=O)Nc2ccccc2Cl)c1O | 99.8 to 100.4 °C |  |  |  |  |
| Cc1cccc(C(=O)Nc2cccc(Br)c2)c1O | 147.2 to 148.2 °C |  |  |  |  |
| Cc1cccc(C(=O)Nc2ccccc2F)c1O | 74.2 to 83.4 °C |  |  |  |  |
| CC(=O)Oc1ccccc1C(=O)Nc1ccccc1S(C)(=O)=O | 115 to 117 °C |  |  |  |  |
| CS(=O)(=O)c1ccccc1NC(=O)c1ccccc1O | 142 to 145 °C |  |  |  |  |
| CC(=O)Oc1ccccc1C(=O)Nc1cccc(S(C)(=O)=O)c1 | 51 to 53 °C |  |  |  |  |
| CS(=O)(=O)c1cccc(NC(=O)c2ccccc2O)c1 | 210 to 212 °C |  |  |  |  |
| CC(=O)Oc1ccccc1C(=O)Nc1ccc(S(C)(=O)=O)cc1 | 184 to 186 °C |  |  |  |  |
| CS(=O)(=O)c1ccc(NC(=O)c2ccccc2O)cc1 | 193 °C and 193 to 196 °C |  |  |  |  |
| O=C(Nc1cc(C(F)(F)F)cc(C(F)(F)F)c1)c1ccccc1O | 196 to 198 °C |  |  |  |  |
| O=C(Nc1ccc([N+](=O)[O-])cc1)c1ccccc1O | 233 °C |  |  |  |  |
| O=C(Nc1ccccc1Br)c1ccccc1O [Compound 4, N-(2-bromophenyl)-2-hydroxybenzamide] | 165.5 °C | > 100 | 5.8 | 20 |  |
| O=C(Nc1ccc([N+](=O)[O-])cc1Cl)c1cc(Cl)ccc1O [Compound 6, 5-chloro-N-(2-chloro-4-nitrophenyl)-2-hydroxybenzamide] |  | 11 | 0.31 | 1.2 | EC50 [3]: 0.11 µM; EC90 [3]: 0.82 µM; CC50 at 3 days [4]: 0.79 µM; EC50 [5]: 0.1 µM; EC90 [5]: 0.61 µM; CC50 at 3 days [6]: 0.64 µM |
| O=C(Nc1cccc([N+](=O)[O-])c1)c1ccccc1O [Compound 7, 2-hydroxy-N-(3-nitrophenyl)benzamide] | 222 °C | 34 | 1.1 | 6.1 |  |
| Cc1cccc(C(=O)Nc2cccc(F)c2)c1O [Compound 9, N-(3-fluorophenyl)-2-hydroxy-3-methylbenzamide] | 143.8 to 144.8 °C | 40 | 1.9 | 9 |  |

| Compound | melting point | CC50 at 3 days [1] [µM] | EC50 [2] [µM] | EC90 [2] [µM] | further results |
| --- | --- | --- | --- | --- | --- |
| Cc1cccc(C(=O)Nc2cccc(Cl)c2)c1O [Compound 14, N-(3-chlorophenyl)-2-hydroxy-3-methylbenzamide] | 148.5 °C | 35 | 2.8 | 7.8 |  |
| O=C(O)c1ccccc1C(=O)Nc1ccccc1Cl [Compound 15, 2-(2-chlorophenylcarbamoyl)benzoic acid] | 145.2 to 145.7 °C | 78 | 2.9 | 11 |  |
| Cc1cccc(C(=O)Nc2ccc(Cl)cc2)c1O [Compound 20, N-(4-chlorophenyl)-2-hydroxy-3-methylbenzamide] | 159.6 to 161.6 °C | > 100 | 6.5 | 16 |  |
| O=C(Nc1ccccc1Cl)c1ccccc1O [Compound 23, N-(2-chlorophenyl)-2-hydroxybenzamide] | 168.1 to 168.8 °C | 72 | 3.8 | 21 |  |
| CC(=O)Oc1ccccc1C(=O)Nc1cccc(F)c1 [Compound 24, 2-(3-fluorophenylcarbamoyl)phenyl acetate] | 88.5 to 89.7 °C | > 100 | 2.1 | 6.8 |  |
| CC(=O)Oc1ccc(Cl)cc1C(=O)Nc1ccc([N+](=O)[O-])cc1Cl [Compound 25, 4-chloro-2-(2-chloro-4-nitrophenylcarbamoyl)phenyl acetate] |  | 5.8 | 0.13 | 0.82 | EC50 [3]: 0.1 µM; EC90 [3]: 0.46 µM; CC50 at 3 days [4]: 4.3 µM; EC50 [5]: 0.078 µM; EC90 [5]: 0.31 µM; CC50 at 3 days [6]: 3.4 µM |
| O=C(Nc1cccc(C(F)(F)F)c1)c1ccccc1O [Compound 27, 2-hydroxy-N-(3-(trifluoromethyl)phenyl)benzamide] | 188 to 190.6 °C | > 100 | 3.6 | 11 |  |
| CC(=O)Oc1ccccc1C(=O)Nc1cc(C(F)(F)F)cc(C(F)(F)F)c1 [Compound 34, 2-(3,5-bis(trifluoromethyl)phenylcarbamoyl)phenyl acetate] | 118 to 125 °C | 4.3 | 0.44 | 1.7 | EC50 [3]: 0.79 µM; EC90 [3]: 4.7 µM; CC50 at 3 days [4]: 7.8 µM; EC50 [5]: 0.91 µM; EC90 [5]: 3.7 µM; CC50 at 3 days [6]: 9.5 µM |
| CC(=O)Oc1ccccc1C(=O)Nc1ccc(Cl)cc1 [Compound 38, 2-(4-chlorophenylcarbamoyl)phenyl acetate] |  |  |  |  | CC50 at 9 days [7]: > 100 µM; EC50 [8]: 3.5 µM; EC90 [8]: 9.7 µM |
| CC(=O)Oc1ccccc1C(=O)Nc1ccc(Br)cc1 [Compound 39, 2-(4-bromophenylcarbamoyl)phenyl acetate] |  |  |  |  | EC50 [9]: 2.1 µM; EC90 [9]: 6.8 µM; CC50 at 9 days [7]: > 100 µM; EC50 [8]: 0.76 µM; EC90 [8]: 3 µM |
| CC(=O)Oc1ccccc1C(=O)Nc1ccc(I)cc1 [Compound 40, 2-(4-iodophenylcarbamoyl)phenyl acetate] |  |  |  |  | EC50 [9]: 0.73 µM; EC90 [9]: 3.3 µM; CC50 at 9 days [7]: > 100 µM; EC50 [8]: 0.2 µM; EC90 [8]: 1.2 µM |
| Cc1cc([N+](=O)[O-])c(Cl)cc1NC(=O)c1ccccc1O [Compound 42, N-(5-chloro-2-methyl-4-nitrophenyl)-2-hydroxybenzamide] |  |  |  |  | EC50 [9]: 0.68 µM; EC90 [9]: 2.1 µM; CC50 at 9 days [7]: > 100 µM; EC50 [8]: 0.23 µM; EC90 [8]: 0.71 µM |
| O=C(Nc1ccc(OC(F)(F)C(F)F)cc1)c1ccccc1O [Compound 49, 2-hydroxy-N-(4-(1,1,2,2-tetrafluoroethoxy)phenyl)benzamide] |  | 3.9 | 0.313 | 1.1 |  |
| O=C(Nc1ccc(C(F)(F)F)cc1)c1ccccc1O [Compound 51, 2-hydroxy-N-(4-(trifluoromethyl)phenyl)benzamide] |  |  |  |  | CC50 at 9 days [7]: > 100 µM; EC50 [8]: 5.6 µM; EC90 [8]: 21 µM |
| CC(=O)Oc1ccccc1C(=O)Nc1cc(C(F)(F)F)ccc1Cl [Compound 52, 2-(2-chloro-5-(trifluoromethyl)phenylcarbamoyl)phenyl acetate] |  |  |  |  | CC50 at 9 days [7]: 59 µM; EC50 [8]: 2.5 µM; EC90 [8]: 9.1 µM |
| CC(=O)Oc1ccccc1C(=O)Nc1ccc(Cl)c([N+](=O)[O-])c1 [Compound 53, 2-(4-chloro-3-nitrophenylcarbamoyl)phenyl acetate] |  |  |  |  | CC50 at 9 days [7]: 52 µM; EC50 [8]: 2 µM; EC90 [8]: 8.7 µM |
| CC(=O)Oc1ccccc1C(=O)Nc1cc([N+](=O)[O-])ccc1Cl [Compound 54, 2-(2-chloro-5-nitrophenylcarbamoyl)phenyl acetate] |  |  |  |  | CC50 at 9 days [7]: 65 µM; EC50 [8]: 2.1 µM; EC90 [8]: 8.5 µM |
| CC(=O)Oc1ccccc1C(=O)Nc1ccc(F)c(F)c1 [Compound 55, 2-(3,4-difluorophenylcarbamoyl)phenyl acetate] |  |  |  |  | CC50 at 9 days [7]: 48 µM; EC50 [8]: 2.2 µM; EC90 [8]: 8.8 µM |
